Earlier results in US20260034249A1, “COMPOSITIONS AND METHODS FOR MODIFYING FERTILITY” (The Broad Institute, Inc., priority 2023, published 2026).

Assays:
MT2 over MT1 receptor = target: T1, MT2 over MT1 receptor (Homo sapiens, UniProt P49286); details: selectivity MT2 vs MT1
T1 sequence (P49286 1-362): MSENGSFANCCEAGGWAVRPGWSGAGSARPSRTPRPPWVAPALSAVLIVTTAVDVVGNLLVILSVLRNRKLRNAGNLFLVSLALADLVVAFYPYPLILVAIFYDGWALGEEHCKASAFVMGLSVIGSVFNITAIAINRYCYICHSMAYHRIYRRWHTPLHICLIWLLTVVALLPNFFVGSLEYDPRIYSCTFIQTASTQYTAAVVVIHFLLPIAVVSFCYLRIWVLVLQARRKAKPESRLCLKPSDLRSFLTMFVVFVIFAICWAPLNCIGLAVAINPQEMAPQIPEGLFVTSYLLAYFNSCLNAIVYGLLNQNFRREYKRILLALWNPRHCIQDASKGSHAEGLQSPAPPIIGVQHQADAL

| Structure (SMILES) | Vim expression (Vim) | other results |
| --- | --- | --- |
| Oc1ccc(C=Cc2cc(O)cc(O)c2)cc1 [resveratrol] | Decreases Vim expression | – |
| C[C@@H]1CC[C@@]2(OC1)O[C@H]1C[C@H]3[C@@H]4CC=C5C[C@@H](O[C@@H]6O[C@H](CO)[C@@H](O[C@@H]7O[C@@H](C)[C@H](O)[C@@H](O)[C@H]7O)[C@H](O)[C@H]6O[C@@H]6O[C@@H](C)[C@H](O)[C@@H](O)[C@H]6O)CC[C@]5(C)[C@H]4CC[C@]3(C)[C@H]1[C@@H]2C [dioscin] | Decreases Vim expression | – |
| COc1cc(C2Oc3cc([C@H]4Oc5cc(O)cc(O)c5C(=O)[C@@H]4O)ccc3OC2CO)ccc1O (some centres unmarked) [Silibin] | Decreases Vim expression | – |
| CC(=O)NCCc1c(Cc2ccccc2)[nH]c2ccccc12 [Luzindole] | – | affinity for MT2 over MT1 receptor (MT2 over MT1 receptor): 25-fold affinity for MT2 over |
| C/C1=C/C(=O)O[C@@H]2C[C@@H](CC[C@H](C)/C=C\C=C\CC1)O[C@@](O)([C@@H]1CSC(=O)N1)C2 [Latrunculin A] | – | binding of TMSB4X to actin (TMSB4X): Sponge toxin that prevents |
